Patent US12643884B2, “1-(2-(4-cyclopropyl-1H-1,2,3-triazol-1-yl)acetyl)-4-hydroxypyrrolidine-2-carboxa|mide derivatives as VHL inhibitors for the treatment of anemia” (Genentech, Inc., priority 2020, dated 2026)

How the values were obtained:
VHL Elongin B/C complex = target: T1, VHL Elongin B/C complex (Homo sapiens, UniProt P40337); test: Fluorescence Polarization (FP) VHL Binding Assay; conditions: fluorescence polarization tracer competition; geometric mean where more than one measurement
T1 construct: amino acids E55-D213 of human VHL; His6 (N); TEV-protease cleavage site (N); made in house; host or cells: E. coli
Procedure: The binding of test compounds to the VHL Elongin B/C complex is measured using a fluorescence polarization tracer competition assay. The VHL/Elongin B/C protein complex used in the assay is generated as follows. The coding region for amino acids E55-D213 of human VHL with N-terminal His6 tag with a TEV-protease cleavage site is co-expressed with Elongin B (residues M1-Q118) and Elongin C (Residues M17-C112) in E. coli. The VHL/Elongin B/C complex is purified using an affinity nickel column, anion exchange HiTrap QP HP column chromatography, and gel filtration using a Superdex 75 26/60 column. […] A VHL fluorescence polarization probe consists of a VHL ligand coupled to carboxytetramethylrhodamine (TAMRA); (2S,4R)—N-(2-(2-(3′,6′-bis(dimethylamino)-3-oxo-3H-spiro[isobenzofuran-1,9′-xanthene]-5-carboxamido)ethoxy)-4-(4-methylthiazol-5-yl)benzyl)-4-hydroxy-1-((R)-3-methyl-2-(3-methylisoxazol-5-yl)butanoyl)pyrrolidine-2-carboxamide. […] A “pre-assay” fluorescence measurement is made using an Infinite® M1000 (Tecan) plate reader (Excitation 530 nm, Emission 574 nm, Bandwidth 10 nm). […] “Post-assay” fluorescence polarization measurements are made as described for the “pre-assay” fluorescence measurement. […] The data are analyzed using Genedata Screener software and normalized to the “no VHL control” and “VHL control” (without compound). […]

VHL = target: T2, VHL (Homo sapiens, UniProt P40337); test: VHL nanoBRET (+Digitonin); type: cell-based
T2 construct: expressed in transfected cells

[1] = target: T3, NanoLuc VHL fusion protein stably expressed in HEK 293 cells (Homo sapiens, UniProt P40337); test: VHL HEK-293 BRET Assay (VHL NanoBRET Target Engagement Assay); type: cell-based; conditions: for IC50: HEK293 cells, nanoBRET, geometric mean where more than one measurement, read-out: VHL binding in cells (HEK293 nanoBRET); for Ratio cell permeability shift: ratio of nanoBRET in cells to nanoBRET +Digitonin
T3 construct: expressed in transfected cells
Procedure: The VHL NanoBRET™ Target Engagement Assay analyzes the apparent affinity of test compounds for VHL in cells by competitive displacement of a VHL NanoBRET™ tracer reversibly bound to a NanoLuc® VHL fusion protein stably expressed in the cells.
Test compounds were transferred to the assay plate (384 Well White Non-Binding Corning Assay Plates (Corning-3574)) using an Echo 555 Liquid Handler (Labcyte) in 2.5 nL increments and, as appropriate, intermediate stock concentrations of compounds, in order to prepare a titration series. 50 nL of control compound (10 mM; parental unlabeled VHL antagonist; see structure below) and 50 nL of DMSO (negative control) were dispensed into the appropriate control wells. DMSO was backfilled to a final volume of 50 nL as required. 50 nl per well of 1 mM VHL NanoBRET™ Tracer in DMSO (NanoBRET™ Tracer-PEG2-590 (see structure below)) was transferred into each well using an Echo 555 (ultimately yielding a final concentration of 1 uM). HEK 293 RT VHL-NanoLuc® stable cells were cultured in DMEM High Glucose with Pyruvate, 10% fetal bovine serum, 2 mg/mL of Geneticin Selective Antibiotic (50 mg/ml) and 2 mM HEPES (1 M). Cells were seeded in Opti-MEM (Life Technologies-11058-021), 1.7×10^5 cells/mL, 40 μl per well into the assay plate, centrifuged at 500 rpm for 30 seconds and incubated for 2 hours. Max Signal control wells consisted of DMSO only treated wells. Minimum Signal control wells contained of 10 uM parental unlabeled VHL antagonist (control compound—see structure below). 3× Complete Substrate plus Inhibitor Solution was prepared in Opti-MEM (consists of a 1:166 dilution of NanoBRET™ Nano-Glo® Substrate plus a 1:500 dilution of Extracellular NanoLuc® Inhibitor in Opti-MEM), and 20 ul was dispensed into each well of the 384-well plate and centrifuged at 1000 rpm for 1 minute, then incubated for 2 minutes at room temperature. Background Signal control wells were prepared without tracer for background correction steps.
Plates were read using a PerkinElmer Envision Reader (model 2104-0020) equipped with Luminescence option (Mirror: BRET2 Enh (PE Barcode 659), Emission Filter: Omega 610LP (Barcode 504), 2nd Emission Filter: Umbelliferone 460 (Barcode 207), Measurement height: 6.5 mm, Measurement time: 1 s). The raw BRET ratio values were calculated by dividing the acceptor emission value (610 nm) by the donor emission value (460 nm) for each sample. To correct for background, the BRET ratio in the absence of tracer (average of no-tracer control samples) was subtracted from the BRET ratio of each sample. Raw BRET units were converted to milliBRET units (mBU) by multiplying each raw BRET value by 1,000. The normalized NanoBRET™ signal was calculated relative to the Max Signal control wells (DMSO treated control wells) and the Minimum Signal control wells. Percentage inhibition was calculated relative to the Minimum Signal control and Maximum Signal control wells. IC50 values were derived by four parameter curve fitting using the Robust method.

T3 sequence (P40337 whole entry, the tested form may be a part): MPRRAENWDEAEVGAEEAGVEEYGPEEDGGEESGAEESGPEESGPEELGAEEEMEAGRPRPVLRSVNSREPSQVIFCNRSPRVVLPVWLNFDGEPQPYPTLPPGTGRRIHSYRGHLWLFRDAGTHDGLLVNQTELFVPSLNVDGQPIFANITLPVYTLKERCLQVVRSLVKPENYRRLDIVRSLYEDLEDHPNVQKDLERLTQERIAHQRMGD
T3 sequence (Q15370 whole entry partner, the tested form may be a part): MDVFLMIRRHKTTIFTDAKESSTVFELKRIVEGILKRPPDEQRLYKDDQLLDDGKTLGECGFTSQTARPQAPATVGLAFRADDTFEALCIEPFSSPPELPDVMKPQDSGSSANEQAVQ
T3 sequence (Q15369 whole entry partner, the tested form may be a part): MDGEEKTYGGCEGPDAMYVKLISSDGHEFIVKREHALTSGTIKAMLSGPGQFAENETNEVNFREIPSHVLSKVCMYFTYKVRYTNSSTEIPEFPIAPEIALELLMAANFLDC
T2 sequence (P40337 whole entry): as the sequence (P40337 whole entry, the tested form may be a part) above
T2 sequence (Q15370 whole entry partner): as the sequence (Q15370 whole entry partner, the tested form may be a part) above
T2 sequence (Q15369 whole entry partner): as the sequence (Q15369 whole entry partner, the tested form may be a part) above
T1 sequence (P40337 55-213): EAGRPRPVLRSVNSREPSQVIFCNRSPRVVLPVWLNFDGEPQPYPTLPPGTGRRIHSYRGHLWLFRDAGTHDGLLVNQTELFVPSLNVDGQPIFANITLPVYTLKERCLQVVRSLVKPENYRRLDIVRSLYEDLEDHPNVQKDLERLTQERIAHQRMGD
T1 sequence (Q15370 whole entry partner, the tested form may be a part): as the sequence (Q15370 whole entry partner, the tested form may be a part) above
T1 sequence (Q15369 17-112 partner limits assumed): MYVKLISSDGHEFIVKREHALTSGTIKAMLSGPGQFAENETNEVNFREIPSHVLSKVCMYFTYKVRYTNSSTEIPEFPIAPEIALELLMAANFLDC

IC50 (VHL Elongin B/C complex) | EC50 (VHL) | IC50 [1] | Ratio cell permeability shift [1] | SMILES
1170 nM | 2.14 µM | 2 µM | 1.71 | CC(C)(C)[C@@H](C(=O)N1C[C@H](O)C[C@H]1C(N)=O)n1cc(C2CC2)nn1 [Final product from Example S1, (2S,4R)-1-((S)-2-(4-cyclopropyl-1H-1,2,3-triazol-1-yl)-3,3-dimethylbutanoyl)-4-hydroxypyrrolidine-2-carboxamide]
– | 72.3 µM | 49.9 µM | 0.69 | CC(C)[C@@H](C(=O)N1C[C@H](O)C[C@H]1C(=O)N(C)C)n1cc(C2CC2)nn1 [Final product from Example S41, (2S,4R)-1-((S)-2-(4-cyclopropyl-1H-1,2,3-triazol-1-yl)-3-methylbutanoyl)-4-hydroxy-N,N-dimethylpyrrolidine-2-carboxamide]
